How the values were obtained:
[1] = test system: CD4+ T cell clones NW2337-CD4-1 and NW2337-CD4-10; assay: Peptide titration ELISPOT assay with overlapping NY-ESO-1 peptides; type: cell-based, human; settings: peptide 10 μM to 0.1 nM pulsed onto autologous EBV-B-cells
Description: (§1) The CD4^+ T cells were restimulated weekly with 1 μg/ml of the peptide being used. On day 12, each CD4^+ culture was assayed for NY-ESO-1 peptide recognition, using the ELISPOT assay of lager, et al., Proc. Natl. Acad. Sci. USA, 97(9):4760-4765 (2000), incorporated by reference. To elaborate on this procedure, flat-bottomed, 96-well nitrocellulose plates were coated with 5 μg/ml of anti-interferon-gamma antibody and incubated overnight at 4° C. After washing with PBS, plates were blocked with 10% human serum (HS) for 1 hour at 37° C. Depending on the effector:target ratio used, various numbers of presensitized CD4^+ T-cells were added to each well along with 5×10^4 autologous peptide pulsed EBV transfected B cells (“EBV-B cells”) serving as target cells and incubated for 16 hours at 37° C. in TCM without IL-2. Plates were then washed extensively (6 times with a solution of 0.05% Tween 20/PBS), and biotinylated anti-interferon-gamma detection antibody was added at a concentration of 0.5 μg/ml. After incubation for 2 h at 37° C., plates were washed and incubated with ABC-AP Vectastain for 1 hour. Plates were washed again and developed with substrate (BCIP/NPT) until blue spots were visible. The number of blue spots/well represented the proportion of NY-ESO-1 specific CD4^+ T-cells/well was finally counted under the microscope.
To further identify the exact epitope required for CD4^+ T cell recognition by these two CD4^+ T cell clones, a peptide titration assay was performed using overlapping NY-ESO-1 peptides (FIG. 2) at concentrations between 10 μM and 0.1 nM, pulsed onto autologous EBV-B-cells and tested in ELISPOT assays (FIG. 3).

CD4+ T cells [2] = assay: IFN-γ ELISPOT of CD4+ T cells presensitized with overlapping NY-ESO-1 18 mer peptides; type: cell-based, human; settings: for Patient T cells 1 / Patient T cells 2 / Patient T cells 3: IFN-γ ELISPOT; for Patient T cells 1: day 12, CD4+ T cells of patient 1, autologous peptide pulsed EBV-B cells as targets; for Patient T cells 2: day 12, CD4+ T cells of patient 2, autologous peptide pulsed EBV-B cells as targets; for Patient T cells 3: day 12, CD4+ T cells of patient 3, autologous peptide pulsed EBV-B cells as targets; for patients whose CD4+ T cells recognized the peptide: three patients tested
Description: Peripheral blood mono-nuclear cells (“PBMCs”) were separated from heparinized blood via Ficoll density gradient separation, using standard, art recognized techniques. Once this was done, the CD4^+ and CD8^+ T cells were separated from each other using magnetic cell sorting techniques which are well known to the art, producing CD4^+, CD8^+, and CD4^−/CD8^− cell populations.
A series of 18 mer peptides were prepared from the amino acid sequence of NY-ESO-1 as set forth in, e.g., U.S. Pat. No. 5,804,381, incorporated by reference. The peptides were designed to cover the entire sequence of NY-ESO-1, and to provide overlap.
The peptides were then individually pulsed to antigen presenting cells (“APCs”). These were CD4^−/CD8^− PBMCs taken from the same subjects who had provided the CD4^+ and CD8^+ cells. These APCs were irradiated with 3000 rads, and then pulsed with one of the peptides, at a concentration of 10 μg/ml, for 1 hour, in serum free medium. These APCs were then washed, and added to the CD4^+ cells. In the pulsing experiments, the peptides were solubilized in DMSO (100%) and then diluted with PBS to a final concentration of 10% DMSO. The CD4^+ cells had been cultured in a medium of L-arginine (242 mg/l), L-asparagene (50 mg/l), L-glutamine (300 mg/l), penicillin (10 IU/ml), streptomycin (100 μg/ml), 1% non-essential amino acids, 10% HS, and 10 ng/ml of recombinant human IL-2.
as §1
The EBV-B-cells were generated from each patients' PBMC following standard methods and maintained in RPMI 1640 medium supplemented with 10 mM Hepes buffer, L-arginine (242 mg/l), L-asparagine (50mg/l), L-glutamine (300 mg/l), penicillin (10 IU/ml), streptomycin (100 μg/ml), 1% non-essential amino acids, and 10% FCS. […] PBMC's or EBV-B-cells were molecularly typed for HLA expression using standard procedures.

HLA-DQB1 03011 = target: T1, HLA-DQB1 03011 (Homo sapiens, UniProt P01909+P01920); assay: ELISPOT with peptide pulsed allogeneic EBV-B-cells of known HLA class II type (HLA restriction); type: cell-based; settings: only shared allele of the recognized peptide pulsed allogenic EBV-B cell lines
T1 construct: peptide pulsed allogeneic EBV-B-cells with known HLA class II types as stimulator cells; endogenous in cells; host or cells: allogeneic patient-derived EBV-transformed B-cell lines (NW-2078, NW-2081, NW-2395, NW-2234, NW-2337, NW-1100, MZ-1257)
T1 sequence (P01920 33-261, other chains not shown): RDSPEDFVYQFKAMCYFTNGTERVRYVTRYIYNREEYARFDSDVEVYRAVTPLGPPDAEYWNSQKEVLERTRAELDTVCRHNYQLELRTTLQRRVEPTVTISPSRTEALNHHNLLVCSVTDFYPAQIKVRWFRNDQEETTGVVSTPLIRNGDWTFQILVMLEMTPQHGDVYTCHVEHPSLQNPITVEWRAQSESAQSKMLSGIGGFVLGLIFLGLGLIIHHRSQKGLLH
Description: In order to determine the HLA molecule to which the novel NY-ESO-1 peptides described above bind, the NW2337 CD4^+ T-cell clones NW2337-CD4-1 and NW2337-CD4-10, were tested in ELISPOT assays using a range of peptide pulsed allogeneic EBV-B-cells with known HLA class II types as stimulator cells as indicated in the following Table. The EBV-B-cell lines were HLA typed using standard methods as described above.
The NW2337-CD4-1 clone recognized allogenic peptide pulsed EBV-B cells from patients NW-2078, NW-2081, NW-2395, NW-2234, NW-2337, NW-1100 and MZ-1257. The allogenic EBV-B cells were recognized by the T cells when pulsed exogenously with either the NY-ESO-1 p49-66 or p55-72 as observed with autologous EBV-B cells described above. […] None of the EBV-B-cells lines that were not recognized by the T cells expressed this MHC allele. […] Again the NY-ESO-1 positive MZ-1257 EBV-B-cell line was recognized with or without exogenous peptide.

[3] = test system: CD4+ T cell clones NW2337-CD4-1 and NW2337-CD4-10; assay: 51Cr release assay with peptide-pulsed EBV-B target cells; type: cell-based, human; settings: for recognition by clone NW2337-CD4-10: clone generated with p55-72
Description: In these experiments, exemplary clones NY-ESO-1 p49-66 specific CD4^+ T cell clone NW2337-CD4-1 and NY-ESO-1 p55-72 specific CD4^+ T cell clone NW2337-CD4-10 were characterized in ^51Chromium (^51Cr) release assays using peptides overlapping the sequence of each stimulation peptide. Standard ^51Cr release assay methods were used. Briefly, autologous EBV B cell target cells were labeled with 100 μCi Na2^51CrO4 for 2 hours, and pulsed with 18 mer or 20 mer NY-ESO-1 peptides (10 μg/ml) for 1 hour. Then, 1×10^3 target cells/well were incubated in 96 V- bottom microwell plates with effector cells at different E/T ratios for 4 h at 37° C. ^51Cr release was measured in the supernatant and the specific cytotoxicity was calculated using the standard methods. Polyclonal T-cell populations were preincubated with unlabeled K562 cells as competitors at a concentration of 40:1 in order to block non-specific effector reactions.
These experiments confirmed recognition of naturally presented NY-ESO-1 epitopes by the CD4+ T-cell clones.

CD4+ T cells [4] = assay: IFN-γ ELISPOT of CD4+ T cells presensitized with overlapping NY-ESO-1 18 mer peptides; type: cell-based, human; settings: patient NW2337, limiting dilution
NW2337 CD4+ T cells = assay: Cytokine ELISPOT assays (IFNγ, TNFα, IL4, IL10) of NW2337 CD4+ T cells; type: cell-based, human
Excerpt: All ELISPOT assay described, supra were designed to detect IFN-γ secretion by the T cell clones following specific antigen stimulation. To determine the phenotype of the NY-ESO-1 specific CD4^+ T cell clones from patient NW2337, additional ELISPOT assays were designed to detect additional cytokines.
The NW2337 CD4^+ T cells were stimulated with either NY-ESO-1 p49-66 and p55-72 peptides and T cells secretion of IFNγ, TNFα, IL4 and IL10measured by ELISPOT assay. […] IL4 and IL10 was not secreted by any of the NY-ESO-1 specific CD4^+ T-cell clones tested following stimulation with NY-ESO-1 p49-66 and p55-72 peptides.

[5] = autologous EBV B cells pulsed with peptide 10 μg/ml

Substance: 61-80: overlapping 20 mer NY-ESO-1 peptide, amino acids 61-80 (PRGPHGGAASGLNGCCRCGA; UniProt P78358 61-80, looked up, fragment) [Peptide 61-80]
- recognition by clone NW2337-CD4-10 [1]: able to recognize

Substance: P49-66: synthetic 18 mer peptide, amino acids 49-66 of NY-ESO-1 (GAARASGPGGGAPRGPHG; UniProt P78358 49-66, looked up, fragment) [Peptide P49-66]
- Patient T cells 1 (CD4+ T cells [2]): + (+ indicates >50 spots (all + scores indicated were >100 spots))
- Patient T cells 2 (CD4+ T cells [2]): + (+ indicates >50 spots (all + scores indicated were >100 spots))
- Patient T cells 3 (CD4+ T cells [2]): + (+ indicates >50 spots (all + scores indicated were >100 spots))
- patients whose CD4+ T cells recognized the peptide (CD4+ T cells [2]): all three patients
- MHC class II allele presenting the peptide to NW2337-CD4-1 T cells (HLA-DQB1 03011): HLA-DQB1 03011
- lysis of peptide pulsed autologous NW-2337-EBV B-cell lines by clones NW-2337-CD4-1 and -4 [3]: efficiently lysed
- recognition by clone NW2337-CD4-1 ([3]; autologous EBV B cells pulsed with peptide 10 μg/ml, clone generated with p49-66): recognized
- recognition by clone NW2337-CD4-10 [3, 5]: did not crossreact
- recognition by clone NW2337-CD4-1 [1]: recognized
- CD4+ T-cell clones generated by stimulation with peptide (CD4+ T cells [4]): 27
- IFN-γ secretion by stimulated T cell clones (NW2337 CD4+ T cells): produced
- IL4 secretion by stimulated T cell clones (NW2337 CD4+ T cells): not secreted
- IL10 secretion by stimulated T cell clones (NW2337 CD4+ T cells): not secreted
- TNF-α secretion by stimulated T cell clones (NW2337 CD4+ T cells): produced

Substance: P61-78: synthetic 18 mer peptide, amino acids 61-78 of NY-ESO-1 (PRGPHGGAASGLNGCCRC; UniProt P78358 61-78, looked up, fragment) [Peptide P61-78]
- Patient T cells 1 (CD4+ T cells [2]): + (+ indicates >50 spots (all + scores indicated were >100 spots))
- Patient T cells 2 (CD4+ T cells [2]): + (+ indicates >50 spots (all + scores indicated were >100 spots))
- Patient T cells 3 (CD4+ T cells [2]): + (+ indicates >50 spots (all + scores indicated were >100 spots))
- patients whose CD4+ T cells recognized the peptide (CD4+ T cells [2]): all three patients
- recognition by clone NW2337-CD4-10 [3, 5]: crossreacted
- recognition by clone NW2337-CD4-10 [1]: able to recognize

Substance: p51-70: overlapping 20 mer NY-ESO-1 peptide, amino acids 51-70 (ARASGPGGGAPRGPHGGAAS; UniProt P78358 51-70, looked up, fragment)
- recognition by clone NW2337-CD4-1 [1]: recognized

Substance: p151-168: synthetic 18 mer peptide, amino acids 151-168 of NY-ESO-1 (SCLQQLSLLMWITQCFLP; UniProt P78358 151-168, looked up, fragment)
- Patient T cells 1 (CD4+ T cells [2]): − (− indicates <50 spots)
- Patient T cells 2 (CD4+ T cells [2]): − (− indicates <50 spots)
- Patient T cells 3 (CD4+ T cells [2]): − (− indicates <50 spots)

Substance: p157-174: synthetic 18 mer peptide, amino acids 157-174 of NY-ESO-1 (SLLMWITQCFLPVFLAQP; UniProt P78358 157-174, looked up, fragment)
- Patient T cells 1 (CD4+ T cells [2]): − (− indicates <50 spots)
- Patient T cells 2 (CD4+ T cells [2]): − (− indicates <50 spots)
- Patient T cells 3 (CD4+ T cells [2]): − (− indicates <50 spots)

Substance: p163-180: synthetic 18 mer peptide, amino acids 163-180 of NY-ESO-1 (TQCFLPVFLAQPPSGQRR; UniProt P78358 163-180, looked up, fragment)
- Patient T cells 1 (CD4+ T cells [2]): − (− indicates <50 spots)
- Patient T cells 2 (CD4+ T cells [2]): − (− indicates <50 spots)
- Patient T cells 3 (CD4+ T cells [2]): − (− indicates <50 spots)
